Test results: patent US20060183902A1, “Dihydroindolyl methanones as alpha 1a/1d adrenoreceptor modulators for the treatment of benign prostatic hypertrophy and lower urinary tract symptoms” (priority 2005, published 2006)
“And” between values parts separate entries of the source, which are not always exact repeats. Equal values may be shown once.

Assays:
α1a-AR = biological target: T1, α1a-AR (Homo sapiens, UniProt P35348); experiment: α1-Adrenergic receptor radio-ligand (125I-HEAT) binding assay, α1a subtype; conditions: COS-7 cell membranes transfected with α1a-AR, 125I-HEAT 50 pM; read-out: Receptor Binding, Ki α1a-AR
T1 construct: expressed in transfected cells; host or cells: COS-7
T1 sequence (P35348 1-466): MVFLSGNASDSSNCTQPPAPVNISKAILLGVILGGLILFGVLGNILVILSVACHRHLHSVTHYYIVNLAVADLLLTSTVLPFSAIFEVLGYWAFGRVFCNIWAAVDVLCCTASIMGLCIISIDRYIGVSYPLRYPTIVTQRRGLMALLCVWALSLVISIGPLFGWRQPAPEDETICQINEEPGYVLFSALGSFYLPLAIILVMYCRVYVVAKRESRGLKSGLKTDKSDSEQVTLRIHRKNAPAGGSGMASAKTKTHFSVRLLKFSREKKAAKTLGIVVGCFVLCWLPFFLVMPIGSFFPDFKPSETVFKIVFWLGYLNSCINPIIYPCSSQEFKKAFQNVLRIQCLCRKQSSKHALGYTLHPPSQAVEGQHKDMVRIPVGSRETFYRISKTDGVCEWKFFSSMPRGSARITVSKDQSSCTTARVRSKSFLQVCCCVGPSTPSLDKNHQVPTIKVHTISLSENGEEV
Method: (§1) Membranes were prepared from COS-7 cells (African Green monkey kidney SV40-transformed cells) that had been transfected with one of the three α1-AR subtypes by the following method:
(§2) COS cells from ten 100 mm tissue culture plates were scraped into a 5 mL volume of TE (a mixture of 50 mM tris(hydroxymethyl)aminomethane hydrochloride (Tris-HCl) and 5 mM ethylenediaminetetraacetic acid (EDTA) at pH 7.4). The cell suspension was disrupted with a Brinkman Polytron (at a setting of 8) for 10 sec. The disrupted cells were centrifuged at 1000×g for 10 min at 4° C. Supernatants were centrifuged at 34,500×g for 20 min at 4° C. The membrane pellets were suspended in a 2 mL volume of TNE (a mixture of 50 mM Tris-HCl, 5 mM EDTA and 150 mM NaCl at pH7.4). An aliquot of the membrane suspension was stored at −70° C. until use. The protein concentration was determined using a BioRad “DC” protein assay kit following membrane solubilization with Triton X-100.
(§3) Triplicate determinations of radio-ligand binding in the presence of increasing concentrations of testing compound were made. The reagents were added to 96-well polypropylene plate wells. Each assay well contained 140 μL TNE, 25 μL ^125I-2-(β-4-hydroxyplenyl)ethylaminomethyltetralone (^125I-HEAT) (specific activity 2200 Ci/mmol, Dupont-New England Nuclear, 50 pM final), 10 μL testing compound dissolved in dimethyl sulfoxide (DMSO) (1 pM to 10 μM in half-log increments, final), and 25 μL appropriate α1-AR membrane subtype suspension in TNE (0.5 ng/μL for the α1a and α1b subtypes and 13 ng/μL for the α1d subtype). The plate was incubated at rt for 1 hr. The contents of the wells were filtered through a glass filter (type C) (GF/C) membrane Unifilter plate (Packard Instruments) using the Packard Filtermate cell harvester. The filter plates were dried in a vacuum oven for 30 min at 40° C. 25 μL Microscint 20 liquid scintillation fluid (Packard Instuments) was added to each well. The radioactive content was analyzed in the TopCount microplate scintillation counter (Packard Instruments).
(§4) The Ki values (in nM) shown in Table 1 were determined using GraphPad Prism software.

α1b-AR = biological target: T2, α1b-AR (Homo sapiens, UniProt P35368); experiment: α1-Adrenergic receptor radio-ligand (125I-HEAT) binding assay, α1b subtype; conditions: COS-7 cell membranes transfected with α1b-AR, 125I-HEAT 50 pM; read-out: Receptor Binding, Ki α1b-AR
T2 construct: expressed in transfected cells; host or cells: COS-7
T2 sequence (P35368 1-520): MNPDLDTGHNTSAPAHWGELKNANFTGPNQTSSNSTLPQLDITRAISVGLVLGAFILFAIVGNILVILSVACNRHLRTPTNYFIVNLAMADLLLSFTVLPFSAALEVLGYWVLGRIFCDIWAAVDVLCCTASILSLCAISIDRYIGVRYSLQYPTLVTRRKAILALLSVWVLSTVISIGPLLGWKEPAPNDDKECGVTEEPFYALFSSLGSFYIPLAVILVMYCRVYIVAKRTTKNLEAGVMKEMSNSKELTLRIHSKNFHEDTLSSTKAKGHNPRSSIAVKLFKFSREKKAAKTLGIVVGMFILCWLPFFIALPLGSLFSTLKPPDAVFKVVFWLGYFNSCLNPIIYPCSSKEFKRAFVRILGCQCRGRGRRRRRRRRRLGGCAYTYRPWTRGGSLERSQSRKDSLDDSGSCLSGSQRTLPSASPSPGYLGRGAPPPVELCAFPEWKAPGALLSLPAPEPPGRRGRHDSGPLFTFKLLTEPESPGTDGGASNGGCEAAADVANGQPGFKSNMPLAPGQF
Method: as §1, §2, §3, §4

α1d-AR = biological target: T3, α1d-AR (Homo sapiens, UniProt P25100); experiment: α1-Adrenergic receptor radio-ligand (125I-HEAT) binding assay, α1d subtype; conditions: COS-7 cell membranes transfected with α1d-AR, 125I-HEAT 50 pM; read-out: Receptor Binding, Ki α1d-AR
T3 construct: expressed in transfected cells; host or cells: COS-7
T3 sequence (P25100 1-572): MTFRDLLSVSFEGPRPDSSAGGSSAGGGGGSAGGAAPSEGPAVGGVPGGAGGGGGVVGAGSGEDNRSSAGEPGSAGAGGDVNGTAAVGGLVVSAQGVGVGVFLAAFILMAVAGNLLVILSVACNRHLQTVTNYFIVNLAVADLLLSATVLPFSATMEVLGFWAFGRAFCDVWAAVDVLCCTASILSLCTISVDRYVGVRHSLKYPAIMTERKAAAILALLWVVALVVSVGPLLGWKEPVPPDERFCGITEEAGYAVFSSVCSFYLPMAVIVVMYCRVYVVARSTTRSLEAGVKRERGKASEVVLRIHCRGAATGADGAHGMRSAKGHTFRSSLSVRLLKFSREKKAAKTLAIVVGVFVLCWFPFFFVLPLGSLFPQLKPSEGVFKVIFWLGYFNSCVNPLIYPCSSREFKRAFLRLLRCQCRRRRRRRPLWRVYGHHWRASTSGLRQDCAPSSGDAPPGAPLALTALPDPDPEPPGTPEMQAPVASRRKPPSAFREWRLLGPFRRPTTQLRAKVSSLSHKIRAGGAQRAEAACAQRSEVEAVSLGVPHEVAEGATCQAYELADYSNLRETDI
Method: as §1, §2, §3, §4

Structure (SMILES) | Ki (α1a-AR) | Ki (α1b-AR) | Ki (α1d-AR)
CC(C)Oc1ccccc1N1CCN(Cc2cccc(C(=O)N3CCc4ccc(NCc5ccc6c(c5)OCO6)cc43)c2)CC1 [Cpd 41, {6-[(benzo[1,3]dioxol-5-ylmethyl)-amino]-2,3-dihydro-indol-1-yl}-{3-[4-(2-isopropoxy-phenyl)-piperazin-1-ylmethyl]-phenyl}-methanone] | 31 nM | 208 nM | 1.5 nM
CC(C)Oc1ccccc1N1CCN(Cc2cccc(C(=O)N3CCc4ccc(N(C(=O)Nc5c(F)cccc5F)C(=O)Nc5c(F)cccc5F)cc43)c2)CC1 [Cpd 43, 3-(2,6-difluoro-phenyl)-1-(1-{3-[4-(2-isopropoxy-phenyl)-piperazin-1-ylmethyl]-benzoyl}-2,3-dihydro-1H-indol-6-yl)-1-(2,6-difluorophenylaminocarbonyl)-urea] | 7.8 nM and 3.4 nM | 204 nM and 185 nM | 2.8 nM and 3.2 nM
CC(C)Oc1ccccc1N1CCN(Cc2cccc(C(=O)N3CCc4ccc(NS(=O)(=O)c5c(F)cccc5F)cc43)c2)CC1 [Cpd 45, 2,6-difluoro-N-(1-{3-[4-(2-isopropoxy-phenyl)-piperazin-1-ylmethyl]-benzoyl}-2,3-dihydro-1H-indol-6-yl)-benzenesulfonamide] | 2.6 nM | 888 nM | 4 nM
Cc1ccc(S(=O)(=O)Nc2ccc3c(c2)N(C(=O)c2cccc(CN4CCN(c5ccccc5OC(C)C)CC4)c2)CC3)cc1 [Cpd 46, N-(1-{3-[4-(2-isopropoxy-phenyl)-piperazin-1-ylmethyl]-benzoyl}-2,3-dihydro-1H-indol-6-yl)-4-methyl-benzenesulfonamide] | 5.9 nM | 242 nM | 5.6 nM
CCS(=O)(=O)Nc1ccc2c(c1)N(C(=O)c1cccc(CN3CCN(c4ccccc4OC(C)C)CC3)c1)CC2 [Cpd 47, ethanesulfonic acid (1-{3-[4-(2-isopropoxy-phenyl)-piperazin-1-ylmethyl]-benzoyl}-2,3-dihydro-1H-indol-6-yl)-amide] | 2.3 nM | 230 nM | 2.6 nM
CC(C)Oc1ccccc1N1CCN(Cc2cccc(C(=O)N3CCc4ccc(NC(=O)c5ccc(F)cc5)cc43)c2)CC1 [Cpd 48, 4-fluoro-N-(1-{3-[4-(2-isopropoxy-phenyl)-piperazin-1-ylmethyl]-benzoyl}-2,3-dihydro-1H-indol-6-yl)-benzamide] | 74 nM | 889 nM | 6 nM
CC(C)Oc1ccccc1N1CCN(Cc2cccc(C(=O)N3CCc4ccc(NC(N)=O)cc43)c2)CC1 [Cpd 49, (1-{3-[4-(2-isopropoxy-phenyl)-piperazin-1-ylmethyl]-benzoyl}-2,3-dihydro-1H-indol-6-yl)-urea] | 14 nM | 351 nM | 13 nM

Second part, the molecule after the results:

Ki (α1a-AR) | Ki (α1b-AR) | Ki (α1d-AR) | Structure (SMILES)
3.8 nM | 447 nM | 5.8 nM | COc1ccc(C(=O)Nc2ccc3c(c2)N(C(=O)c2cccc(CN4CCN(c5ccccc5OC(C)C)CC4)c2)CC3)cc1 [Cpd 42, N-(1-{3-[4-(2-isopropoxy-phenyl)-piperazin-1-ylmethyl]-benzoyl}-2,3-dihydro-1H-indol-5-yl)-4-methoxy-benzamide]
7.8 nM | 458 nM | 32 nM | COc1ccccc1C1CCN(Cc2ccc(C(=O)N3CCc4ccccc43)cc2)CC1 [Cpd 50, (2,3-dihydro-indol-1-yl)-{4-[4-(2-methoxy-phenyl)-piperidin-1-ylmethyl]-phenyl}-methanone]
0.8 nM | 106 nM | 1.6 nM | CC(C)Oc1ccccc1C1CCN(Cc2cccc(C(=O)N3CCc4ccccc43)c2)CC1 [Cpd 51, (2,3-dihydro-indol-1-yl)-{3-[4-(2-isopropoxy-phenyl)-piperidin-1-ylmethyl]-phenyl}-methanone]
122 nM | 1730 nM | 159 nM | CC(C)Oc1ccccc1CN1CCN(Cc2ccc(C(=O)N3CCc4ccccc43)cc2)CC1 [Cpd 52, (2,3-dihydro-indol-1-yl)-{4-[4-(2-isopropoxy-benzyl)-piperazin-1-ylmethyl]-phenyl}-methanone]
